Laboratory results as given in patent US7250511B2, “Process for the preparation of cyclopenta[g]quinazoline derivatives” (BTG International Limited, priority 2001, dated 2007).

| melting point | Structure (SMILES) |
| --- | --- |
| 305 to 307 °C | C#CCN(c1ccc(C(=O)O)cc1)C1CCc2cc3nc(C)[nH]c(=O)c3cc21 (racemic) [Example 1, 4{N-[(6RS)-2-Methyl-4-oxo-3,4,7,8-tetrahydro-6H-cyclopenta[g]quinazolin-6-yl]-N-(prop-2-ynyl)amino}benzoic acid] |
| 150 to 155 °C | C#CCN(c1ccc(C(=O)N[C@@H](CCC(=O)N[C@H](CCC(=O)O)C(=O)O)C(=O)O)cc1)C1CCc2cc3nc(COC)[nH]c(=O)c3cc21 (mixture of isomers) [Example 2, N-{N-{4-[N-((6RS)-2-Methoxymethyl4oxo-3,4,7,8-tetrahydro-6H-cyclopent[g]quinazolin-6-yl)-N-(prop-2-ynyl)amino]-benzoyl}-L-γ-glutamyl}-D-glutamic acid] |
| 175 °C (dec.) | C#CCN(c1ccc(C(=O)N[C@@H](CCC(=O)N[C@H](CCC(=O)O)C(=O)O)C(=O)O)c(F)c1)C1CCc2cc3nc(C)[nH]c(=O)c3cc21 (mixture of isomers) [Example 4, N-{N-{4[N-((6RS)-2-methyl-4-oxo-3,4,7,8-tetra-hydro-6H-cyclopental[g]quinazolin-6-yl)-N-(prop2-ynyl)amino]-2-fluoro-benzoyl}-L-γ-glutamyl}-D-glutamic acid] |
| > 165 °C (dec.) | C#CCN(c1ccc(C(=O)N[C@@H](CCC(=O)N(C)[C@@H](CCC(=O)O)C(=O)O)C(=O)O)cc1)C1CCc2cc3nc(CO)[nH]c(=O)c3cc21 (mixture of isomers) [Example 5, N-{N-{4-[N-((6RS)-2-hydroxymethyl-4-oxo-3,4,7,8-tetrahydro-6H-cyclopenta[g]quinazolin-6yl)-N-(prop-2-ynyl)amino]-benzoyl}-L-γ-glutamyl}-N-methyl-L-glutamic acid] |
